This is an account of results in article PMC10343501 (Molecules, 2023).

What all share (type): cell-based
What all share (settings): read-out: % inhibition at 100 nM

Series [1] deals with T1, hERG potassium channel (Homo sapiens, UniProt Q12809, S624A).
T1 construct: gene KCNH2
The experiment in a line: whole-cell patch clamp, transfected HEK-293 cells, […], RT. In general terms: In patch-clamp work, channel activity is measured electrically.

The target in series [2] is T2, hERG potassium channel (Homo sapiens, UniProt Q12809, Y652A).
T2 construct: gene KCNH2
T2 sequence (Q12809 whole entry Y652A): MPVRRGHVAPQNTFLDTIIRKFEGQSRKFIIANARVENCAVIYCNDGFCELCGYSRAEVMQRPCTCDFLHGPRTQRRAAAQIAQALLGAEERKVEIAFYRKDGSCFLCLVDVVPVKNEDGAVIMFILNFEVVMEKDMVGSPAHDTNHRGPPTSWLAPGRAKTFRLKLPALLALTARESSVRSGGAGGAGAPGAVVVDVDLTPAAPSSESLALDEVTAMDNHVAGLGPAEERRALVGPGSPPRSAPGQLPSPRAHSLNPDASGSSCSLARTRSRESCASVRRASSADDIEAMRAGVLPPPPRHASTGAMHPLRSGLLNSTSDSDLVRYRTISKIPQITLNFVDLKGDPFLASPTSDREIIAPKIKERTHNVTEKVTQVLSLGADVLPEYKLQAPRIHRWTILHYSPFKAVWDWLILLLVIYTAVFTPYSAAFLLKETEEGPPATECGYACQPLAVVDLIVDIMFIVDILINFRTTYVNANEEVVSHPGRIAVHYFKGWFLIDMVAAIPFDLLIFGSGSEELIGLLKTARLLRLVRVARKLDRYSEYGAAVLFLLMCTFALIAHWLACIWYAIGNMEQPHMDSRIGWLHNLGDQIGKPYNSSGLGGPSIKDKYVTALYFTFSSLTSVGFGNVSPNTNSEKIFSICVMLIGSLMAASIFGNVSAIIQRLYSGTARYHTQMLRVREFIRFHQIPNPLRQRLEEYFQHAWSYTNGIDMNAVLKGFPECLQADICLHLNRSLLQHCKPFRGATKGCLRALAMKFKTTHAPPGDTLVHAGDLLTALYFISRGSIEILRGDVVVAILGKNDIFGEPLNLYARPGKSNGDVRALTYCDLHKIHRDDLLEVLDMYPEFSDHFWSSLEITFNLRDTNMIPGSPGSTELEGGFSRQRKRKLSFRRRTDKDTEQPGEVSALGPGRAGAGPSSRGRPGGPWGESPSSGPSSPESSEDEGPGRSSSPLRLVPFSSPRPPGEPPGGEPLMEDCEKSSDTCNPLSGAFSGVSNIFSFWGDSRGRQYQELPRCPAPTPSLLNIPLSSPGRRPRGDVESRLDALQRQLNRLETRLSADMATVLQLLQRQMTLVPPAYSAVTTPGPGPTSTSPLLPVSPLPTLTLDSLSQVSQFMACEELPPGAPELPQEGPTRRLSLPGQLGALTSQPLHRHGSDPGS
The description is as above.

Series [3] addresses T3, hERG potassium channel (Homo sapiens, UniProt Q12809).
T3 construct: gene KCNH2
The experiment in a line: whole-cell patch clamp, HEK-293 cells, […] inhibition at […] (RT), […] (PT).

T1 sequence (Q12809 whole entry S624A): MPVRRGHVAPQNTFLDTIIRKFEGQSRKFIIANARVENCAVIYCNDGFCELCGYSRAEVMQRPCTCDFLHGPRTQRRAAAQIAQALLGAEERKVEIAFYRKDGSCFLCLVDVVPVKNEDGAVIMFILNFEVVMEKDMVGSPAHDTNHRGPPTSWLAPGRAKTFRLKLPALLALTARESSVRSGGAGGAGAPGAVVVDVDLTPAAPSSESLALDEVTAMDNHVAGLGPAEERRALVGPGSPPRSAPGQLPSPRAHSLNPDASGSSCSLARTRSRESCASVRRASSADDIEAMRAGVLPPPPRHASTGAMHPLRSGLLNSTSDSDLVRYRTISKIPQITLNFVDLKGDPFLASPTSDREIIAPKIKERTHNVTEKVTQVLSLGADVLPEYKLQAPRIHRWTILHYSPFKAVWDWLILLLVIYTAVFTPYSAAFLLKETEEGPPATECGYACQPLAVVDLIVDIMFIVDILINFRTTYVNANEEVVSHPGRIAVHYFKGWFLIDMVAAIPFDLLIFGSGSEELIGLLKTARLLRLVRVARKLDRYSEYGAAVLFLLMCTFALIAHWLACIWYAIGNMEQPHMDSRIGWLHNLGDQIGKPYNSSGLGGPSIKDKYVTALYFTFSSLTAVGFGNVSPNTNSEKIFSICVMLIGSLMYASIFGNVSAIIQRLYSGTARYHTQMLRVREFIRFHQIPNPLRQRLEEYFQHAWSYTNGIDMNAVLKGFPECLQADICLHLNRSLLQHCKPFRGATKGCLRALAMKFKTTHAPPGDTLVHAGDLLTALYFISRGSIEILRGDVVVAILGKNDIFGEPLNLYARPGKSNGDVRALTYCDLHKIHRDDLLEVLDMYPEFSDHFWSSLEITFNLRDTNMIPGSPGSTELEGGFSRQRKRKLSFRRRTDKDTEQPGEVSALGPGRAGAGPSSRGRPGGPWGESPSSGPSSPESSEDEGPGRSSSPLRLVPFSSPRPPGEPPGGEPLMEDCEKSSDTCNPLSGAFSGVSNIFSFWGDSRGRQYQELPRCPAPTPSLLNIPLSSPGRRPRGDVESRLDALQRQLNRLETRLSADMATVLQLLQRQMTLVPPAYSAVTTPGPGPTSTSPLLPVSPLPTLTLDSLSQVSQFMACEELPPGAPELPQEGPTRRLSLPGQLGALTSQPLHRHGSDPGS
T3 sequence (Q12809 whole entry): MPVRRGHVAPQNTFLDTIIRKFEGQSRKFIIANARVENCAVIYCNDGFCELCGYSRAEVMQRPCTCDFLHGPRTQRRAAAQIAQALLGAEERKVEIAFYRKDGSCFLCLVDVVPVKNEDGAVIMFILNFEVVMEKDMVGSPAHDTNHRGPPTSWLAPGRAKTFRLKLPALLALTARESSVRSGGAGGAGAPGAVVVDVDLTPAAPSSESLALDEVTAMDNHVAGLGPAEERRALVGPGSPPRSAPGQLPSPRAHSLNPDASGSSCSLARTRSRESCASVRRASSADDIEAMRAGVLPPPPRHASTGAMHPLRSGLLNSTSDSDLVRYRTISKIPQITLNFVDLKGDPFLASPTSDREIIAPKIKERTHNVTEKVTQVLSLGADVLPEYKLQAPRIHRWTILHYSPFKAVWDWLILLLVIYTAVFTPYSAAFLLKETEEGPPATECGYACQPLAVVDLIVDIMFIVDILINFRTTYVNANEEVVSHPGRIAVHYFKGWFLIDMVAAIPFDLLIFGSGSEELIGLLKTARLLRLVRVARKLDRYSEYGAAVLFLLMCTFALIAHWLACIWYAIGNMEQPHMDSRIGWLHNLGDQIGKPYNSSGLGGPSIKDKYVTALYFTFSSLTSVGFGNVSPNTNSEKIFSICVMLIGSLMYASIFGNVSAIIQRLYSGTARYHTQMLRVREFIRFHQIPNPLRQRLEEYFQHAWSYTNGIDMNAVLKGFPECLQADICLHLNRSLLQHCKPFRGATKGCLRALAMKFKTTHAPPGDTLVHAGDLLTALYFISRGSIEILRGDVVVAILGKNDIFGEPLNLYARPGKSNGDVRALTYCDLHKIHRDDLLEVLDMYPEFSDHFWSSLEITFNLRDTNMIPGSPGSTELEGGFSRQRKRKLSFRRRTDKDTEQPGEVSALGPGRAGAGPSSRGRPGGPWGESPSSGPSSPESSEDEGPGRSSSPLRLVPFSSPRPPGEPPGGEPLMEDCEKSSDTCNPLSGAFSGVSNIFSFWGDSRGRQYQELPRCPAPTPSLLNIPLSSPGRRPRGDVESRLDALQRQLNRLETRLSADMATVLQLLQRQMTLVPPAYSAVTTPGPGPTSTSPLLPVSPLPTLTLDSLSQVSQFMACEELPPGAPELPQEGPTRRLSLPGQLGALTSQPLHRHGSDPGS

For `COc1cc(N)c(Cl)cc1C(=O)NC1CCN(CCCOc2ccc(F)cc2)CC1OC` (stereo not drawn) [cisapride], the inhibition at 0.1 µM on hERG potassium channel [1] is 44%; at hERG potassium channel [2], 33.9%; on hERG potassium channel [3] it was 75.9%.

As usually defined, the inhibition is the drop in the measured response relative to a control, in per cent.
